Data: patent publication US20230133445A1, “COMPOSITIONS AND METHODS FOR IMPROVING THE APPEARANCE OF SKIN” (L'Oreal, priority 2021, published 2023)

Columns and labels:
[1] = type: in vitro ADME, human
Description: Human skin samples were obtained from abdominal surgery. Excess subcutaneous fat was removed, if necessary. Skin samples were excised and cut into pieces of around 2 cm×2 cm. Thickness was measured and transepidermal water loss (TEWL) was measured. The human skin was included in the study if the TEWL was between 0.5 and 13 g/m^2/h for abdominal skin. The 2 cm^2 skin samples were kept in a static cell in a diffusion chamber in a Franz cell horizontal cell clamp system (Crown Glass Company, Inc.) and maintained at a constant temperature of 32° C.±1° C. The static cells consist of a donor chamber and a receptor chamber with a 7 mL receptor fluid compartment separated by the skin.
The cells were placed on a magnetic stirrer which was integrated with a fixed temperature water bath maintained in order to have 32° C.±1° C. at the skin surface. The receptor compartment of each cell was filled with the receptor fluid (PBS) and was continuously stirred. The skin samples were placed on the receptor compartment. The donor compartment was then placed onto the skin samples. […]
A composition containing 2 wt % acetyl trifluoromethylphenyl valylglycine was applied to the skin sample at a rate of 10 mg/cell using a positive displacement pipette and the exact amount applied was determined by weight then recorded (Sartorius Entris II Essential Analytical balance, Thermo-Fisher). […]
The skin was then stripped with consistent weight and time of application. […] The strips samples were stored with solvent (methanol) at −20° C. for a maximum of 5 days before being analyzed. […] The RS vials were stored with solvent (methanol) at −20° C. for a maximum of 7 days before being analyzed. Dermis and epidermis samples were stored with solvent at −20° C. for a maximum of 7 days before being analyzed. The receptor fluid was taken 16 hours after the application and the samples were analyzed.
Receptor fluid samples were stored at −20° C. for a maximum of 6 days before being analyzed. […] Samples were stored at −20° C. for a maximum of 5 days before being analyzed.
The final extract was analyzed by LC-MS/MS. […]

Neutrophil Elastase = target: T1, Neutrophil Elastase (Homo sapiens, UniProt P08246); assay: Neutrophil Elastase (NE) Inhibition in tubo assay (MAK213, Sigma-Aldrich); type: biochemical
T1 construct: purchased Sigma-Aldrich MAK213
T1 sequence (P08246 30-267): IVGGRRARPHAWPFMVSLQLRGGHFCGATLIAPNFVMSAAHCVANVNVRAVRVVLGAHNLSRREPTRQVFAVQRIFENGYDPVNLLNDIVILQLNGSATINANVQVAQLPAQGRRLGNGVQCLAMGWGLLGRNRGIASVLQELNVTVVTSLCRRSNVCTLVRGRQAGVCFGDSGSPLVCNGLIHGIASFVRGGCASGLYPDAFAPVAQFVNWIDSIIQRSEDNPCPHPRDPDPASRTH
Description: The ability of acetyl trifluoromethylphenyl valylglycine (“ATV”), glycolic acid, and/or lactic acid to inhibit the elastin-hydrolyzing effect of elastase was evaluated in a Neutrophil Elastase (NE) Inhibition in tubo assay (MAK213, Sigma-Aldrich, MO). Neutrophil Elastase activity was measured by hydrolyzing the substrate to yield a fluorescent product (λex=400/λem=505 nm) proportional to the enzymatic activity present.
A 4× sample inhibitor solution of the each tested chemical peeling agent and acetyl trifluoromethylphenyl valylglycine, and every combination provided in FIGS. 1 and 2 was prepared. The inhibitor/positive control (Elastase Inhibitor, SPCK, AG Scientific), enzyme/negative control (contains elastase), neutrophil elastase, and substrate solutions were prepared. The test compounds, controls, and neutrophil elastase were added to a 96-well plate, protected from light, and incubated at 37° C. for 5 minutes. The elastin substrate was then added to each well and the fluorescence (FLU, λex=400 nm, λem=505 nm) was measured every minute for thirty minutes at 37° C. The slope of the plot (time vs FLU) was taken. Relative inhibition was calculated as follows: […]

## CC(=O)N(c1cccc(C(F)(F)F)c1)C(C(=O)NCC(=O)O)C(C)C (stereo not shown) [ATV, acetyl trifluoromethylphenyl valylglycine]
[1]
  amount penetrated through the stratum corneum: about 0.08 wt %
  amount penetrating past the stratum corneum barrier into epidermis, dermis and receptor fluid: about 0.8%
  dermal dose of the 2 wt % preparation: at least 0.08 wt %
Neutrophil Elastase; Table 1, 0.0125 wt % ATV
  Average Inhibition (%): 12.49%
Neutrophil Elastase; Table 1, 0.025 wt % ATV
  Average Inhibition (%): 14.97%
Neutrophil Elastase; Table 1, 0.0625 wt % ATV
  Average Inhibition (%): 18.36%
Neutrophil Elastase; Table 2, 0.0125 wt % ATV
  Average Inhibition (%): 4.93%
Neutrophil Elastase; Table 2, 0.025 wt % ATV
  Average Inhibition (%): 9.311%
Neutrophil Elastase; Table 2, 0.0625 wt % ATV
  Average Inhibition (%): 11.96%

## O=C(O)CO [Glycolic Acid, reference compound]
Neutrophil Elastase; Table 1, 0.125 wt % Glycolic Acid
  Average Inhibition (%): 15.8949%
Neutrophil Elastase; Table 1, 0.625 wt % Glycolic Acid
  Average Inhibition (%): 23.89%

## CC(O)C(=O)O (stereo not shown) [Lactic Acid, reference compound]
Neutrophil Elastase; Table 2, 0.125 wt % Lactic Acid
  Average Inhibition (%): 8.507%
Neutrophil Elastase; Table 2, 0.625 wt % Lactic Acid
  Average Inhibition (%): 24.09%
